The values that follow come from patent US20220186188A1, “Method for Obtaining Pancreatic Progenitor Cells and Pancreatic Islet Beta Cells By Means of Differentiation of Human Pluripotent Stem Cells” (Asia Regenerative Medicine, Ltd., priority 2019, published 2022).

Holding throughout (format): cell-based
Series [1] has as its system pancreatic progenitor cells differentiated from human embryonic stem cells. Nature of the series: Flow cytometry detection of PDX1 in the pancreatic progenitor cell stage (human embryonic stem cells). To be noted: 2 μM inhibitor in pancreatic progenitor cell medium, 5 days, compared with control group without WNT inhibitor. The protocol:
a pancreatic progenitor cell medium was prepared, the medium in step 1) was replaced with the pancreatic progenitor cell medium, and the cells were cultured in a carbon dioxide incubator at 37 degrees Celsius for 5 days, during which the medium was replaced every day, wherein the composition of the pancreatic progenitor cell medium was: with an MCDB131 medium as a basic medium, and the following components at the working concentrations were further included: 0.5% of bovine serum albumin (BSA), 1.5 g/L of sodium bicarbonate, 1×glutamine (GlutaMAX), 10 mM glucose, […], 1×insulin-transferrin-selenium-ethanolamine additive (ITS-X), 50 ng/ml of fibroblast growth factor 7 (KGF), 0.5 μM SANT1 (with smo as an inhibitor target), 100 nM retinoic acid (TTNPB), 500 nM phorbol 12,13-dibutyrate (PDBu), 2 μM ALK inhibitor (K02288), and 2 μM WNT signaling pathway inhibitor XAV-939 (not added in a control group), with the concentrations all being final concentrations. […]
(In general: A flow cytometer gives signals particle by particle.)

In series [2] the test system is pancreatic progenitor cells and pancreatic islet β cells differentiated from human embryonic stem cells. Nature of the series: Real-time fluorescence quantitative PCR of PDX1, NKX6-1 and INS mRNA (human embryonic stem cells). To be noted: qPCR. The procedure: (§1) a pancreatic progenitor cell medium was prepared, the medium in step 1) was replaced with the pancreatic progenitor cell medium, and the cells were cultured in a carbon dioxide incubator at 37 degrees Celsius for 5 days, during which the medium was replaced every day, wherein the composition of the pancreatic progenitor cell medium was: with an MCDB131 medium as a basic medium, and the following components at the working concentrations were further included: 0.5% of bovine serum albumin (BSA), 1.5 g/L of sodium bicarbonate, 1×glutamine (GlutaMAX), 10 mM glucose, 0.25 M vitamin C, 1×insulin-transferrin-selenium-ethanolamine additive (ITS-X), 50 ng/ml of fibroblast growth factor 7 (KGF), 0.5 μM SANT1 (with smo as an inhibitor target), 100 nM retinoic acid (TTNPB), 500 nM phorbol 12,13-dibutyrate (PDBu), 2 μM ALK inhibitor (K02288), and 2 μM WNT signaling pathway inhibitor XAV-939 (not added in a control group), with the concentrations all being final concentrations.
(§2) b. pancreatic islet β cell medium 2 was prepared, the pancreatic islet β cell medium 1 in above-mentioned step a was replaced with the pancreatic islet β cell medium 2, and the cells were cultured in a carbon dioxide incubator at 37 degrees Celsius for 5 days, during which the medium was replaced every day, wherein the composition of the pancreatic islet β cell medium 1 was: with an MCDB131 medium as a basic medium, and the following components at the working concentrations were further included: 20 mM glucose, 2% of bovine serum albumin (BSA), 1.5 g/L of sodium bicarbonate, 1×glutamine (GlutaMAX), 0.05 mM vitamin C, 1×insulin-transferrin-selenium-ethanolamine additive (ITS-X), 2 μM ALK inhibitor (K02288), 1 μM triiodothyronine (T3), 10 μM YO-01027 (Notch signaling pathway inhibitor), and 10 μM zinc sulfate, with the concentrations all being final concentrations; and the composition of the pancreatic islet β cell medium 2 was: with an MCDB131 medium as a basic medium, and the following components at the working concentrations were further included: 20 mM glucose, 2% of bovine serum albumin (BSA), 1.5 g/L of sodium bicarbonate, 1×glutamine (GlutaMAX), 0.05 mM vitamin C, 1×insulin-transferrin-selenium-ethanolamine additive (ITS-X), 1 μM triiodothyronine (T3), 10 μM Repsox (ALK5 inhibitor), 10 μM vitamin E, 10 μg/ml of heparin sodium, 2 μM R428 (Axl inhibitor), 10 μM zinc sulfate, and 10 mM N-acetyl-L-cysteine (N-cys), with the concentrations all being final concentrations.
Cells cultured in a 24-well plate were collected, and washed twice with 500 μl of DPBS at first, then covered with 200 μl of chymotrypsin-trypsin (Trypsin), and placed at 37° C. for 5 minutes of digestion. Whether the cells float in pieces was observed, and the digestion was terminated using 500 μl of DMEM/F12 medium, then the product was centrifuged at 1000 rpm for 3 minutes, the supernatant was removed, and cell pellets were collected and added to a new RNase-free centrifuge tube. […]
A general note: In qPCR the cycle at which signal appears reflects the starting amount.

Series [3] shares this test system. Nature of the series: Immunofluorescence detection of PDX1 and PDX1/INS proteins (human embryonic stem cells). The procedure:
as §1, §2
Cells in a culture plate were washed three times with a phosphate buffered saline (PBS), 3 minutes each time; the cells were fixed with 4% paraformaldehyde at room temperature for 20 minutes, and washed three times with PBS, 3 minutes each time; a blocking solution was prepared in advance (by adding Triton at a final concentration of 0.3% to 9 ml of DPBS, adding donkey serum at a final concentration of 10%, and uniformly mixing); the above-prepared blocking solution was used for blocking and perforation at room temperature for 2 hours; the blocking solution was soaked up, a working concentration of primary antibody prepared with the blocking solution was then added, and the product was left to stand at room temperature for 30 minutes and then placed in a refrigerator at 4° C. overnight; the next day, the product was washed three times with PBS, 3 minutes each time; a fluorescent secondary antibody of donkey serum was added and incubation was carried out at room temperature for 2 hours; in the same way, the product was washed three times with PBS, 3 minutes each time; the product was incubated with a working solution of the nuclear dye DAPI at room temperature for 10 minutes, and washed three times with PBS, 3 minutes each time; then a fluorescence microscope was used for observation and data were collected. […]

[4] abbreviates: 2 μM inhibitor in pancreatic progenitor cell stage, GAPDH reference.
The mark [5] stands for this setting: 2 μM inhibitor in pancreatic progenitor cell stage.

On to `O=C(Nc1cccc2cccnc12)c1ccc(N2C(=O)[C@@H]3[C@H](C2=O)[C@@H]2C=C[C@H]3C2)cc1` [IWR-1], for which the “PDX1-positive pancreatic progenitor cells (flow cytometry)” value in series [1] was “significantly increased”. The “transcription level of the insulin gene INS in the mature pancreatic islet β cell stage” value in series [2] (2 μM inhibitor added in pancreatic progenitor cell stage) was “greatly increased”. For the same compound, in series [2] (setting [4]), the “relative expression of mRNA of NKX6-1 in pancreatic progenitor cells” value is recorded as “significantly increased” and the “relative expression of mRNA of PDX1 in pancreatic progenitor cells” value is given as “significantly increased”. Also, in series [3] (2 μM inhibitor added in pancreatic progenitor cell stage, immunofluorescence), the “number of insulin INS-positive and PDX1 co-stained pancreatic islet β cells in the mature pancreatic islet β cell stage” value is “significantly increased”. Further, in series [3] (setting [5]), the “PDX1-positive pancreatic progenitor cells (immunofluorescence)” value is recorded as “significantly increased” and the “cell growth (total cell number by DAPI)” value is “did not affect the cell growth”.
